Laboratory results as given in patent publication US9499550B2 (BRISTOL-MYERS SQUIBB COMPANY, priority 2012, dated 2016).
Read-outs that look alike come from different tables or passages of the source.

Legend:
[1] = test system: HCV genotype 1b (Con1) replicon in HUH-7 cells; experiment: HCV replicon luciferase reporter assay, genotype 1b; type: cell-based; settings: Hepatitis C virus, Huh-7, 72 h, HCV genotype 1b replicon luciferase, 3 days incubation
Outline: (§1)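 Replicon inhibition for both genotypes was measured as Renilla luciferase signal (EnduRen, 7.5 μM final, 2 h) after 3-day, 37° C exposure of replicon-bearing HUH-7 cells in 4% FCS DMEM, 0.5% DMSO. The 1b construct carries S1179I; the 1a H77 construct carries P1496L and S2204I. Twenty-point, 3-fold dilutions were fitted four-parametrically for EC50, and CC50 was taken from multiplexed Cell Titer-Blue.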

[2] = test system: HCV genotype 1a (H77 strain) replicon in HUH-7 cells; experiment: HCV replicon luciferase reporter assay, genotype 1a; type: cell-based; settings: Hepatitis C virus, Huh-7, 72 h, HCV genotype 1a replicon luciferase, 3 days incubation
Outline: as §1

CC[C@@H]1C[C@H](C)CC/C=C\[C@@H]2C[C@@]2(C(=O)NS(=O)(=O)C2CC2)NC(=O)[C@@H]2C[C@@H](Oc3nc(OC)cc4ccccc34)CN2C(=O)[C@H]1NC(=O)OC(C)(C)C(F)(F)F [Compound 6003, 1,1,1-trifluoro-2-methylpropan-2-yl((2R,6S,7R,9R,13aS,14aR,16aS,Z)-14a-((cyclopropylsulfonyl)carbamoyl)-7-ethyl-2-((3-methoxyisoquinolin-1-yl)oxy)-9-methyl-5,16-dioxo-1,2,3,5,6,7,8,9,10,11,13a,14,14a,15,16,16a-hexadecahydrocyclopropa[e]pyrrolo[1,2-a][1,4]diazacyclopentadecin-6-yl)carbamate]
EC50 ([1]; read-out: LE_1b (EC50)): 0.22 nM | EC50 ([1]; read-out: LE_1b (EC50, range)): < 5.46 nM | EC50 ([2]; read-out: LE_1a (EC50)): 1.33 nM | EC50 ([2]; read-out: LE_1a (EC50, range)): < 5.46 nM

CC[C@@H]1C[C@@H](C)CC/C=C\[C@@H]2C[C@@]2(C(=O)NS(=O)(=O)C2(C)CC2)NC(=O)[C@@H]2C[C@@H](Oc3nc(OC)cc4ccccc34)CN2C(=O)[C@H]1NC(=O)OC(C)(C)C [Compound 6004, tert-butyl ((2R,6S,7R,9S,13aS,14aR,16aS,Z)-7-ethyl-2-((3-methoxyisoquinolin-1-yl)oxy)-9-methyl-14a-(((1-methylcyclopropyl)sulfonyl)carbamoyl)-5,16-dioxo-1,2,3,5,6,7,8,9,10,11,13a,14,14a,15,16,16a-hexadecahydrocyclopropa[e]pyrrolo[1,2-a][1,4]diazacyclopentadecin-6-yl)carbamate]
EC50 ([1]; read-out: LE_1b (EC50, range)): < 5.46 nM | EC50 ([2]; read-out: LE_1a (EC50, range)): 4.82 to 103 nM

CC[C@@H]1C[C@H](C)CC/C=C\[C@@H]2C[C@@]2(C(=O)NS(=O)(=O)C2(C)CC2)NC(=O)[C@@H]2C[C@@H](Oc3nc(OC)cc4ccccc34)CN2C(=O)[C@H]1NC(=O)OC(C)(C)C [Compound 6005, tert-butyl ((2R,6S,7R,9R,13aS,14aR,16aS,Z)-7-ethyl-2-((3-methoxyisoquinolin-1-yl)oxy)-9-methyl-14a-(((1-methylcyclopropyl)sulfonyl)carbamoyl)-5,16-dioxo-1,2,3,5,6,7,8,9,10,11,13a,14,14a,15,16,16a-hexadecahydrocyclopropa[e]pyrrolo[1,2-a][1,4]diazacyclopentadecin-6-yl)carbamate]
EC50 ([1]; read-out: LE_1b (EC50)): 0.28 nM | EC50 ([1]; read-out: LE_1b (EC50, range)): < 5.46 nM | EC50 ([2]; read-out: LE_1a (EC50)): 1.29 nM | EC50 ([2]; read-out: LE_1a (EC50, range)): < 5.46 nM

CC[C@@H]1C[C@H](C)CC/C=C\[C@@H]2C[C@@]2(C(=O)NS(=O)(=O)C2(C)CC2)NC(=O)[C@@H]2C[C@@H](Oc3nc(OC)cc4ccccc34)CN2C(=O)[C@H]1NC(=O)OC(C)(C)C(F)(F)F [Compound 6007, 1,1,1-trifluoro-2-methylpropan-2-yl((2R,6S,7R,9R,13aS,14aR,16aS,Z)-7-ethyl-2-((3-methoxyisoquinolin-1-yl)oxy)-9-methyl-14a-(((1-methylcyclopropyl)sulfonyl)carbamoyl)-5,16-dioxo-1,2,3,5,6,7,8,9,10,11,13a,14,14a,15,16,16a-hexadecahydrocyclopropa[e]pyrrolo[1,2-a][1,4]diazacyclopentadecin-6-yl)carbamate]
EC50 ([1]; read-out: LE_1b (EC50, range)): < 5.46 nM | EC50 ([2]; read-out: LE_1a (EC50, range)): < 5.46 nM

COc1cc2ccccc2c(O[C@@H]2C[C@H]3C(=O)N[C@]4(C(=O)NS(=O)(=O)C5(C)CC5)C[C@H]4/C=C\CC[C@H](C)C[C@@H](C)[C@H](NC(=O)OC(C)(C)C)C(=O)N3C2)n1 [Compound 6008, tert-butyl ((2R,6S,7R,9S,13aS,14aR,16aS,Z)-2-((3-methoxyisoquinolin-1-yl)oxy)-7,9-dimethyl-14a-(((1-methylcyclopropyl)sulfonyl)carbamoyl)-5,16-dioxo-1,2,3,5,6,7,8,9,10,11,13a,14,14a,15,16,16a-hexadecahydrocyclopropa[e]pyrrolo[1,2-a][1,4]diazacyclopentadecin-6-yl)carbamate]
EC50 ([1]; read-out: LE_1b (EC50, range)): < 5.46 nM | EC50 ([2]; read-out: LE_1a (EC50, range)): < 5.46 nM

COc1cc2ccccc2c(O[C@@H]2C[C@H]3C(=O)N[C@]4(C(=O)NS(=O)(=O)C5(C)CC5)C[C@H]4/C=C\CC[C@@H](C)C[C@@H](C)[C@H](NC(=O)OC(C)(C)C)C(=O)N3C2)n1 [Compound 6009, tert-butyl ((2R,6S,7R,9R,13aS,14aR,16aS,Z)-2-((3-methoxyisoquinolin-1-yl)oxy)-7,9-dimethyl-14a-(((1-methylcyclopropyl)sulfonyl)carbamoyl)-5,16-dioxo-1,2,3,5,6,7,8,9,10,11,13a,14,14a,15,16,16a-hexadecahydrocyclopropa[e]pyrrolo[1,2-a][1,4]diazacyclopentadecin-6-yl)carbamate]
EC50 ([1]; read-out: LE_1b (EC50)): 0.3 nM | EC50 ([1]; read-out: LE_1b (EC50, range)): < 5.46 nM | EC50 ([2]; read-out: LE_1a (EC50)): 1.12 nM | EC50 ([2]; read-out: LE_1a (EC50, range)): < 5.46 nM

COc1cc2ccccc2c(O[C@@H]2C[C@H]3C(=O)N[C@]4(C(=O)NS(=O)(=O)C5CC5)C[C@H]4/C=C\CC[C@@H](C)C[C@@H](C)[C@H](NC(=O)OC(C)(C)C)C(=O)N3C2)n1 [Compound 6011, tert-butyl ((2R,6S,7R,9R,13aS,14aR,16aS,Z)-14a-((cyclopropylsulfonyl)carbamoyl)-2-((3-methoxyisoquinolin-1-yl)oxy)-7,9-dimethyl-5,16-dioxo-1,2,3,5,6,7,8,9,10,11,13a,14,14a,15,16,16a-hexadecahydrocyclopropa[e]pyrrolo[1,2-a][1,4]diazacyclopentadecin-6-yl)carbamate]
EC50 ([1]; read-out: LE_1b (EC50, range)): < 5.46 nM | EC50 ([2]; read-out: LE_1a (EC50, range)): < 5.46 nM

COc1cc2ccccc2c(O[C@@H]2C[C@H]3C(=O)N[C@]4(C(=O)NS(=O)(=O)C5(C)CC5)C[C@H]4/C=C\CC[C@@H](C)C[C@@H](C)[C@H](NC(=O)OC(C)(C)C(F)(F)F)C(=O)N3C2)n1 [Compound 6015, 1,1,1-trifluoro-2-methylpropan-2-yl((2R,6S,7R,9R,13aS,14aR,16aS,Z)-2-((3-methoxyisoquinolin-1-yl)oxy)-7,9-dimethyl-14a-(((1-methylcyclopropyl)sulfonyl)carbamoyl)-5,16-dioxo-1,2,3,5,6,7,8,9,10,11,13a,14,14a,15,16,16a-hexadecahydrocyclopropa[e]pyrrolo[1,2-a][1,4]diazacyclopentadecin-6-yl)carbamate]
EC50 ([1]; read-out: LE_1b (EC50)): 0.24 nM | EC50 ([1]; read-out: LE_1b (EC50, range)): < 5.46 nM | EC50 ([2]; read-out: LE_1a (EC50)): 1.19 nM | EC50 ([2]; read-out: LE_1a (EC50, range)): < 5.46 nM

COc1cc2ccccc2c(O[C@@H]2C[C@H]3C(=O)N[C@]4(C(=O)NS(=O)(=O)C5(CF)CC5)C[C@H]4/C=C\CC[C@@H](C)C[C@@H](C)[C@H](NC(=O)OC(C)(C)C(F)(F)F)C(=O)N3C2)n1 [Compound 6016]
EC50 ([1]; GETYPE1B, read-out: LE_1b (EC50, range)): < 5.46 nM | EC50 ([2]; GETYPE1A, read-out: LE_1a (EC50, range)): < 5.46 nM

COc1cc2ccccc2c(O[C@@H]2C[C@H]3C(=O)N[C@]4(C(=O)NS(=O)(=O)C5CC5)C[C@H]4/C=C\CC[C@H](C)C[C@@H](C)[C@H](NC(=O)OC(C)(C)C(F)(F)F)C(=O)N3C2)n1 [Compound 6017, 1,1,1-trifluoro-2-methylpropan-2-yl((2R,6S,7R,9S,13aS,14aR,16aS,Z)-14a-((cyclopropylsulfonyl)carbamoyl)-2-((3-methoxyisoquinolin-1-yl)oxy)-7,9-dimethyl-5,16-dioxo-1,2,3,5,6,7,8,9,10,11,13a,14,14a,15,16,16a-hexadecahydrocyclopropa[e]pyrrolo[1,2-a][1,4]diazacyclopentadecin-6-yl)carbamate]
EC50 ([1]; read-out: LE_1b (EC50, range)): < 5.46 nM | EC50 ([2]; read-out: LE_1a (EC50, range)): < 5.46 nM

COc1cc2ccccc2c(O[C@@H]2C[C@H]3C(=O)N[C@]4(C(=O)NS(=O)(=O)C5CC5)C[C@H]4/C=C\CC[C@@H](C)C[C@@H](C)[C@H](NC(=O)OC(C)(C)C(F)(F)F)C(=O)N3C2)n1 [Compound 6018, 1,1,1-trifluoro-2-methylpropan-2-yl((2R,6S,7R,9R,13aS,14aR,16aS,Z)-14a-((cyclopropylsulfonyl)carbamoyl)-2-((3-methoxyisoquinolin-1-yl)oxy)-7,9-dimethyl-5,16-dioxo-1,2,3,5,6,7,8,9,10,11,13a,14,14a,15,16,16a-hexadecahydrocyclopropa[e]pyrrolo[1,2-a][1,4]diazacyclopentadecin-6-yl)carbamate]
EC50 ([1]; read-out: LE_1b (EC50, range)): < 5.46 nM | EC50 ([2]; read-out: LE_1a (EC50, range)): < 5.46 nM

C[C@@H]1CC/C=C\[C@@H]2C[C@@]2(C(=O)NS(=O)(=O)C2(C)CC2)NC(=O)[C@@H]2C[C@@H](Oc3nc4c(c5ccccc35)OCCC4)CN2C(=O)[C@@H](NC(=O)OC(C)(C)C)[C@H](C)C1 [Compound 6020, tert-butyl ((2R,6S,7R,9R,13aS,14aR,16aS,Z)-2-((3,4-dihydro-2H-pyrano[3,2-c]isoquinolin-6-yl)oxy)-7,9-dimethyl-14a-(((1-methylcyclopropyl)sulfonyl)carbamoyl)-5,16-dioxo-1,2,3,5,6,7,8,9,10,11,13a,14,14a,15,16,16a-hexadecahydrocyclopropa[e]pyrrolo[1,2-a][1,4]diazacyclopentadecin-6-yl)carbamate]
EC50 ([1]; read-out: LE_1b (EC50, range)): < 5.46 nM | EC50 ([2]; read-out: LE_1a (EC50, range)): < 5.46 nM

C[C@@H]1CC/C=C\[C@@H]2C[C@@]2(C(=O)NS(=O)(=O)C2(C)CC2)NC(=O)[C@@H]2C[C@@H](Oc3nc4c(c5ccccc35)OCCC4)CN2C(=O)[C@@H](NC(=O)OC(C)(C)C(F)(F)F)[C@H](C)C1 [Compound 6022, 1,1,1-trifluoro-2-methylpropan-2-yl((2R,6S,7R,9R,13aS,14aR,16aS,Z)-2-((3,4-dihydro-2H-pyrano[3,2-c]isoquinolin-6-yl)oxy)-7,9-dimethyl-14a-(((1-methylcyclopropyl)sulfonyl)carbamoyl)-5,16-dioxo-1,2,3,5,6,7,8,9,10,11,13a,14,14a,15,16,16a-hexadecahydrocyclopropa[e]pyrrolo[1,2-a][1,4]diazacyclopentadecin-6-yl)carbamate]
EC50 ([1]; read-out: LE_1b (EC50, range)): < 5.46 nM | EC50 ([2]; read-out: LE_1a (EC50, range)): < 5.46 nM
